What all share (format): functional
A short description of test [1]: Antifungal activity against Monilia albican ATCC 10231 after 24 to 72 hrs by NCCLS method.
Another test has as its system Escherichia coli. Put plainly: Antibacterial activity against Escherichia coli ATCC 8099 after 24 hrs by NCCLS method.
Another test relates to Staphylococcus aureus. As to the kind of experiment: Antibacterial activity against Staphylococcus aureus ATCC 6538 after 24 hrs by NCCLS method.

≈ marks a conversion by molar mass, not a printed value. Calls of active or inactive are those of the source.

The term MFC denotes the smallest concentration meeting the test's criterion for killing the fungus. A lower MFC goes with more potent killing. By MIC is commonly meant the lowest concentration found to suppress growth. The term MBC denotes the smallest concentration meeting the test's criterion for killing. In test [1], `CC(=O)OC[C@H]1O[C@@H](Sc2nnc(-c3ccccc3)n2/N=C/c2cc(Br)ccc2O)[C@H](OC(C)=O)[C@@H](OC(C)=O)[C@@H]1OC(C)=O` had an MFC of 16 µg/mL (≈ 22.7 µM) and an MIC of 16 µg/mL (≈ 22.7 µM). In the test on Escherichia coli (ATCC 8099, 24 h), this molecule had an MBC of 128 µg/mL (≈ 181 µM) and an MIC of 128 µg/mL (≈ 181 µM). In the test on Staphylococcus aureus (ATCC 6538, 24 h), the MBC is 32 µg/mL (≈ 45.4 µM) and the MIC amounted to 32 µg/mL (≈ 45.4 µM).

Turning to `OC(Cn1cncn1)(Cn1cncn1)c1ccc(F)cc1F` [FLUCONAZOLE], in test [1], the MFC stood at 4 µg/mL (≈ 13.1 µM) and 2 µg/mL (≈ 6.53 µM) was the least that counted as inhibitory (MIC). In the test on Escherichia coli (ATCC 8099, 24 h), this molecule registered an MBC of 128 µg/mL (≈ 418 µM) and an MIC of 128 µg/mL (≈ 418 µM). In the test on Staphylococcus aureus (ATCC 6538, 24 h), this molecule returned an MBC of 32 µg/mL (≈ 104 µM) and an MIC of 16 µg/mL (≈ 52.2 µM).

In test [1], `CC(=O)OC[C@H]1O[C@@H](Sc2nnc(-c3ccccc3O)n2/N=C/c2ccccc2O)[C@H](OC(C)=O)[C@@H](OC(C)=O)[C@@H]1OC(C)=O` gave an MFC of 64 µg/mL (≈ 99.6 µM) and a minimal inhibitory concentration (MIC) of 64 µg/mL (≈ 99.6 µM). Moreover, in the test with Escherichia coli (ATCC 8099, 24 h), the MBC came out at 64 µg/mL (≈ 99.6 µM) and the lowest concentration to inhibit growth (MIC) was 64 µg/mL (≈ 99.6 µM). Also, in the test on Staphylococcus aureus (ATCC 6538, 24 h), the MBC turned out to be 128 µg/mL (≈ 199 µM) and the MIC stood at 128 µg/mL (≈ 199 µM).

In the case of `CC(=O)OC[C@H]1O[C@@H](Sc2nnc(-c3ccccc3)n2/N=C/c2cc(Cl)ccc2O)[C@H](OC(C)=O)[C@@H](OC(C)=O)[C@@H]1OC(C)=O`, in test [1], the MFC was 32 µg/mL (≈ 48.4 µM) and the MIC came to 16 µg/mL (≈ 24.2 µM). In the test with Escherichia coli (ATCC 8099, 24 h), this molecule gave an MBC of 128 µg/mL (≈ 194 µM) and an MIC of 128 µg/mL (≈ 194 µM). In the test on Staphylococcus aureus (ATCC 6538, 24 h), this molecule gave a minimum bactericidal concentration (MBC) of 128 µg/mL (≈ 194 µM) and an MIC of 64 µg/mL (≈ 96.8 µM).

In test [1], `CC(=O)OC[C@H]1O[C@@H](Sc2nnc(-c3ccccc3O)n2/N=C/c2cc(Br)ccc2O)[C@H](OC(C)=O)[C@@H](OC(C)=O)[C@@H]1OC(C)=O` gave an MFC of 16 µg/mL (≈ 22.2 µM) and an MIC of 16 µg/mL (≈ 22.2 µM). In the test on Escherichia coli (ATCC 8099, 24 h), this molecule yielded an MBC of 128 µg/mL (≈ 177 µM) and an MIC of 128 µg/mL (≈ 177 µM). In the test with Staphylococcus aureus (ATCC 6538, 24 h), this molecule gave an MBC of 128 µg/mL (≈ 177 µM) and an MIC of 64 µg/mL (≈ 88.7 µM).

In test [1], `CC(=O)OC[C@H]1O[C@@H](Sc2nnc(-c3ccccc3)n2/N=C/c2ccccc2Cl)[C@H](OC(C)=O)[C@@H](OC(C)=O)[C@@H]1OC(C)=O` yielded an MFC of 64 µg/mL (≈ 99.2 µM) and an MIC of 64 µg/mL (≈ 99.2 µM). In the test on Escherichia coli (ATCC 8099, 24 h), this molecule showed an MBC of 128 µg/mL (≈ 198 µM) and an MIC of 128 µg/mL (≈ 198 µM). In addition, in the test with Staphylococcus aureus (ATCC 6538, 24 h), the MBC is 128 µg/mL (≈ 198 µM) and the MIC turned out to be 128 µg/mL (≈ 198 µM).

Turning to `CC(=O)OC[C@H]1O[C@@H](Sc2nnc(-c3ccccc3)n2/N=C/c2cc(Br)cc(Br)c2O)[C@H](OC(C)=O)[C@@H](OC(C)=O)[C@@H]1OC(C)=O`, in test [1], the minimal fungicidal concentration (MFC) stood at 16 µg/mL (≈ 20.4 µM) and the lowest concentration to inhibit growth (MIC) was 16 µg/mL (≈ 20.4 µM). In the test on Escherichia coli (ATCC 8099, 24 h), this molecule came in with an MBC of 16 µg/mL (≈ 20.4 µM) and a minimal inhibitory concentration (MIC) of 16 µg/mL (≈ 20.4 µM). In the test on Staphylococcus aureus (ATCC 6538, 24 h), this molecule returned an MBC of 32 µg/mL (≈ 40.8 µM) and an MIC of 16 µg/mL (≈ 20.4 µM).

In test [1], GENTAMICIN gave an MFC of 4 µg/mL and an MIC of 4 µg/mL. Besides, in the test with Escherichia coli, the MBC was 4 µg/mL and the MIC is 2 µg/mL. Also, in the test with Staphylococcus aureus, the MBC was found to be 2 µg/mL and the MIC was found to be 2 µg/mL.

In the case of `CC(=O)OC[C@H]1O[C@@H](Sc2nnc(-c3ccccc3)n2/N=C/c2ccccc2)[C@H](OC(C)=O)[C@@H](OC(C)=O)[C@@H]1OC(C)=O`, in test [1], the MFC was 64 µg/mL (≈ 105 µM) and the MIC was found to be 32 µg/mL (≈ 52.4 µM). Also, in the test with Escherichia coli (ATCC 8099, 24 h), the MBC came out at 128 µg/mL (≈ 210 µM) and the MIC was 128 µg/mL (≈ 210 µM). Also, in the test with Staphylococcus aureus (ATCC 6538, 24 h), the minimal bactericidal concentration (MBC) came to 64 µg/mL (≈ 105 µM) and 64 µg/mL (≈ 105 µM) was the least that counted as inhibitory (MIC).

As for `Oc1cc(Cl)ccc1Oc1ccc(Cl)cc1Cl` [TRICLOSAN], in test [1], the MFC worked out at 64 µg/mL (≈ 221 µM) and the minimum inhibitory concentration (MIC) came to 32 µg/mL (≈ 111 µM). In the test on Escherichia coli (ATCC 8099, 24 h), the MBC was found to be 4 µg/mL (≈ 13.8 µM) and inhibition of growth (MIC) required 2 µg/mL (≈ 6.91 µM). Moreover, in the test on Staphylococcus aureus (ATCC 6538, 24 h), the MBC is 4 µg/mL (≈ 13.8 µM) and the minimal inhibitory concentration (MIC) amounted to 4 µg/mL (≈ 13.8 µM).

In test [1], `CC(=O)OC[C@H]1O[C@@H](Sc2nnc(-c3ccccc3)n2/N=C/c2ccccc2O)[C@H](OC(C)=O)[C@@H](OC(C)=O)[C@@H]1OC(C)=O` returned an MFC of 64 µg/mL (≈ 102 µM) and an MIC of 32 µg/mL (≈ 51.1 µM). Further, in the test with Escherichia coli, the MBC entry is “inactive” and the MIC entry was “inactive”. In addition, in the test with Staphylococcus aureus (ATCC 6538, 24 h), the MBC is 128 µg/mL (≈ 204 µM) and the minimum inhibitory concentration (MIC) was determined as 64 µg/mL (≈ 102 µM).

In test [1], `CC(=O)OC[C@H]1O[C@@H](Sc2nnc(-c3ccccc3O)n2/N=C/c2cc(Cl)ccc2O)[C@H](OC(C)=O)[C@@H](OC(C)=O)[C@@H]1OC(C)=O` displayed an MFC of 32 µg/mL (≈ 47.3 µM) and an MIC of 16 µg/mL (≈ 23.6 µM). Besides, in the test with Escherichia coli (ATCC 8099, 24 h), the MBC is 256 µg/mL (≈ 378 µM) and the MIC was found to be 128 µg/mL (≈ 189 µM). For the same molecule, in the test with Staphylococcus aureus (ATCC 6538, 24 h), the MBC came to 128 µg/mL (≈ 189 µM) and the MIC is 128 µg/mL (≈ 189 µM).

In turn, `CC(=O)OC[C@H]1O[C@@H](Sc2nnc(-c3ccccc3O)n2/N=C/c2ccccc2Cl)[C@H](OC(C)=O)[C@@H](OC(C)=O)[C@@H]1OC(C)=O` registered an MFC in test [1] of 64 µg/mL (≈ 96.8 µM). Moreover, the MIC was 32 µg/mL (≈ 48.4 µM) in test [1]; 128 µg/mL (≈ 194 µM) in the test with Escherichia coli (ATCC 8099, 24 h); 128 µg/mL (≈ 194 µM) in the test with Staphylococcus aureus (ATCC 6538, 24 h). The MBC in the test with Escherichia coli (ATCC 8099, 24 h) was 128 µg/mL (≈ 194 µM); against Staphylococcus aureus (ATCC 6538, 24 h), 128 µg/mL (≈ 194 µM).

Regarding `CC(=O)OC[C@H]1O[C@@H](Sc2nnc(-c3ccccc3O)n2/N=C/c2cc(Br)cc(Br)c2O)[C@H](OC(C)=O)[C@@H](OC(C)=O)[C@@H]1OC(C)=O`, in test [1], the MFC came to 32 µg/mL (≈ 40 µM) and inhibition of growth (MIC) required 16 µg/mL (≈ 20 µM). Moreover, in the test on Escherichia coli (ATCC 8099, 24 h), the MBC was 16 µg/mL (≈ 20 µM) and the lowest concentration to inhibit growth (MIC) was 16 µg/mL (≈ 20 µM). In the test on Staphylococcus aureus (ATCC 6538, 24 h), this molecule displayed a minimum bactericidal concentration (MBC) of 32 µg/mL (≈ 40 µM) and an MIC of 32 µg/mL (≈ 40 µM).

In the case of `CC(=O)OC[C@H]1O[C@@H](Sc2nnc(-c3ccccc3O)n2/N=C/c2ccccc2)[C@H](OC(C)=O)[C@@H](OC(C)=O)[C@@H]1OC(C)=O`, the MFC in test [1] was 32 µg/mL (≈ 51.1 µM). In addition, the MIC in test [1] came out at 32 µg/mL (≈ 51.1 µM); in the test on Escherichia coli (ATCC 8099, 24 h) it was 128 µg/mL (≈ 204 µM); against Staphylococcus aureus (ATCC 6538, 24 h), 128 µg/mL (≈ 204 µM). The MBC against Escherichia coli (ATCC 8099, 24 h) came to 256 µg/mL (≈ 409 µM); against Staphylococcus aureus (ATCC 6538, 24 h), 256 µg/mL (≈ 409 µM).

The values above are taken from ChEMBL document CHEMBL2346514, “Efficient synthesis and antimicrobial activity of some novel S-β-d-glucosides of 5-aryl-1,2,4-triazole-3-thiones derivatives” (2013).
